We go through one molecule from ChEMBL document CHEMBL2073900, “Cellular uptake and efflux of the tea flavonoid (-)epicatechin-3-gallate in the human intestinal cell line Caco-2” (J Pharmacol Exp Ther, 2003).

The series concerns the target ATP-binding cassette sub-family C member 2 (Homo sapiens, UniProt Q92887). Briefly: TP_TRANSPORTER: uptake in membrane vesicle from MRP2-expressing MDCKII cells. As to conditions: dog, mdck-ii. The format is functional, cell membranes.

Chain of ATP-binding cassette sub-family C member 2 (Q92887 whole entry): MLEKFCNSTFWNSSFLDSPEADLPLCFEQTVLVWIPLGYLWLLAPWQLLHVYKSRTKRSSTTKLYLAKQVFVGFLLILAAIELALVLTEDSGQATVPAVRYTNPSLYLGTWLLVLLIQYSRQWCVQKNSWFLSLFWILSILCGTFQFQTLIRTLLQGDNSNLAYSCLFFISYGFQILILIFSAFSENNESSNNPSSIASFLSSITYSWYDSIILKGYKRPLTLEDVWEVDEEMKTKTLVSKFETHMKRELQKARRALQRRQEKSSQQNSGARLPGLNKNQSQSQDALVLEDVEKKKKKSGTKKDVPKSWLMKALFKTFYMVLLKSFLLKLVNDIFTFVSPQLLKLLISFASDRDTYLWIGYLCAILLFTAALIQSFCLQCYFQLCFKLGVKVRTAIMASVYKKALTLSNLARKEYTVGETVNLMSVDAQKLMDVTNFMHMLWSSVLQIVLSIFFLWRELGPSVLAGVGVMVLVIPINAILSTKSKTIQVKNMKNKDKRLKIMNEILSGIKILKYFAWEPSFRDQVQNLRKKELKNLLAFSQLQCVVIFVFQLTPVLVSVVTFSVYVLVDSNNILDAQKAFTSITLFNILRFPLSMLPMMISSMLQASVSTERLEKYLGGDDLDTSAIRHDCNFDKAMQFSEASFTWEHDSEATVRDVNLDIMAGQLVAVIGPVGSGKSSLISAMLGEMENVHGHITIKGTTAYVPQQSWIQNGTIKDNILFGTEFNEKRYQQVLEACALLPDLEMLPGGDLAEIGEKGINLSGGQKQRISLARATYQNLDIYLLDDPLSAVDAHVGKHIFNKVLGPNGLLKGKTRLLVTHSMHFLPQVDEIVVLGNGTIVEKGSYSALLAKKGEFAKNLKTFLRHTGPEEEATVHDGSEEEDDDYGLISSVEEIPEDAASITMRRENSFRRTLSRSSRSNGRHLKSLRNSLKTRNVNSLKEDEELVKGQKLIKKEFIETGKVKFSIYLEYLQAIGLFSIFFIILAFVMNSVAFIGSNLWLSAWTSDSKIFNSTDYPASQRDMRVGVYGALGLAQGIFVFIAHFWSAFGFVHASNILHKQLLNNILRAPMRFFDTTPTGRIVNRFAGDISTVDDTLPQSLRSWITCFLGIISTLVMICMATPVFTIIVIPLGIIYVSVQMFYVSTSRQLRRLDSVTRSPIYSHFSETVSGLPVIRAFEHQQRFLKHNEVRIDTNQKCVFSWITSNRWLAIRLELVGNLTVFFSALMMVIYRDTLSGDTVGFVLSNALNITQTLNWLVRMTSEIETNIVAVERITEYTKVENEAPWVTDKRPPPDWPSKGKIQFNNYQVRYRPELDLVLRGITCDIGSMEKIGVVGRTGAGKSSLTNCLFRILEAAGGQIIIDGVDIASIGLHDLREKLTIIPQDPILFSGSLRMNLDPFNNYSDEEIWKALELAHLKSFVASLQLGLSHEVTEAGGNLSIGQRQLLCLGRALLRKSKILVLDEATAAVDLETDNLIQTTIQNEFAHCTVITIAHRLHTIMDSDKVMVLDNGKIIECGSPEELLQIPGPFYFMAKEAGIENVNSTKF

As for `O=C(O[C@@H]1Cc2c(O)cc(O)cc2O[C@@H]1c1ccc(O)c(O)c1)c1cc(O)c(O)c(O)c1` [EPICATECHIN GALLATE], the Activity entry was “substrate []”.
